Entries after “also recorded” stand apart in the source; their conditions may differ. Read-outs that look alike come from different tables or passages of the source.
What was measured:
[1] = system: hepatocellular carcinoma (HepG-2); assay: MTT assay, HepG-2; format: cell-based, human; conditions: for antitumor impact on HepG-2: compared with DOX
Excerpt: (§1) Mammary gland (MCF-7;# ATCC HTB-22), colorectal adenocarcinoma (Caco-2; # ATCC HTB-37), hepatocellular carcinoma (HepG-2; #ATCC HB-8065), and human lung fibroblast (WI-38; # ATCC CCL-75). The ATCC cell line was obtained via the Holding Company for Biological Products and Vaccines (VACSERA), Cairo, Egypt.
(§2) The MTT test was utilized to ascertain the phosphonate's inhibitory effects on cell growth utilizing the aforementioned cell lines. The basis of this colorimetric assay is the transformation of yellow tetrazolium bromide (MTT) by mitochondrial succinate dehydrogenase in living cells into a purple formazan derivative. 10% fetal bovine serum was added to RPMI-1640 media used to cultivate cell lines. At 37 °C in an incubator with 5% CO2, 100 units/mL of penicillin and 100 µg/mLof streptomycin were introduced as antibiotics. The cell lines were seeded at 1.0 × 10^4 cells/well in a 96-well plate and kept at 37 °C for 24 h with 5% CO2. Following incubation, the cells were subjected to several concentrations of newly synthesized phosphonates and left for 48 h incubation. 20 µL of a 5 mg/mL MTT solution was added and incubated for 4 h after the drug treatment lasted for 48 h. To dissolve the purple formazan produced in each well, 100 µL of dimethyl sulfoxide (DMSO) was applied. Using a plate reader (EXL 800, USA), the colorimetric test is measured and recorded at the absorbance of 570 nm. (A570 of treated samples/A570 of untreated sample) X 100 was used to compute the relative cell viability as a percentage.

[2] = system: colorectal adenocarcinoma (Caco-2); assay: MTT assay, Caco-2; format: cell-based, human; conditions: for antitumor impact on Caco-2: MTT, 48 h, compared with DOX; for IC50: Homo sapiens, Caco-2, 48 h, read-out: Anti-cancer activity CaCo-2 (IC50), MTT, 48 h
Excerpt: as §1, §2

Mammary gland (MCF-7) = assay: MTT assay, MCF-7; format: cell-based, human; conditions: for IC50: Homo sapiens, MCF7, 48 h, read-out: Anti-cancer activity MCF-7 (IC50), MTT, 48 h; for antitumor impact on MCF-7: MTT, 48 h, compared with DOX
Excerpt: as §1, §2

DPPH radical scavenging = conditions: for IC50: 0.1 mM DPPH in methanol, 30 min dark, 517 nm
Experimental: (§3) With slight modifications, the DPPH and ABTS methods were used to test the new phosphonate’s free radical scavenging activity. Briefly, one milliliter of a 0.1 mM DPPH in methanol solution and ABTS in distilled water were added to the newly synthesized compounds. For 30 min, the mixture was left in the dark. The synthetic compounds’ ability to scavenge free radicals was compared to that of L. Ascorbic acid. At 517 nm for DPPH and 734 nm for ABTS, optical density was recorded, and the concentration inhibition was computed.
(§4) The percentage of inhibition is equal to [(A control − A test)/A control] × 100, where A control represents the control absorbance and A test represents the test sample absorbance. It was established what sample concentration (IC50) produced 50% inhibition. Every experiment was conducted in triplicate, and the mean ± SE IC50 values were reported.

ABTS radical scavenging = conditions: for IC50: 30 min dark, 734 nm
Experimental: as §3, §4

[3] = system: bacterial and fungal strains; assay: Disc diffusion, whole panel (result in words); format: cell-based; conditions: 1 mg/mL
Experimental: (§5) The produced compounds’ antimicrobial activity was evaluated using a panel of two gram-positive bacteria (Bacillus subtilis (#MTCC NO 441) and Staphylococcus aureus (#MTCC NO 96). as well as two Gram-negative bacteria (Pseudomonas aeruginosa (#MTCC NO 1688), Escherichia coli(#MTCC NO 452)). Two fungi [Candida albicans(#MTCC NO 183) and Aspergillus flavus(#MTCC NO 1344)] were used to assess the compounds' anti-fungal properties. Paper discs of Whatman filter paper with a standard size of […] were made, dissolved in DMSO, and then sterilized in an autoclave. A solution of 1 mg/mL was prepared for each drug separately. Paper discs soaked in the desired concentration of the complex solution were aseptically placed in Petri dishes containing nutrient agar media (20 g + 3 g of beef extract + 5 g of peptone) seeded with bacterial and fungal strains. After 24 h of incubation at 36 °C, the inhibitory zones in the petri dishes were measured. There were three copies of every treatment. Using the same protocol as previously described, the antifungal Clotrimazole and the common standard antibiotic Ciprofloxacin were also tested for antibacterial activity at the same concentrations and solvent combinations.

[4] = system: human lung fibroblast (WI-38); assay: MTT assay, WI-38 normal cells; format: cell-based; conditions: 48 h
Excerpt: as §1, §2

Escherichia coli = assay: Disc diffusion, E. coli; format: cell-based; conditions: inhibition zone vs standard drug, 1 mg/mL, 24 h, 36 °C
Experimental: as §5

Pseudomonas aeruginosa = assay: Disc diffusion, P. aeruginosa; format: cell-based; conditions: inhibition zone vs standard drug, 1 mg/mL, 24 h, 36 °C
Experimental: as §5

Staphylococcus aureus = assay: Disc diffusion, S. aureus; format: cell-based; conditions: inhibition zone vs standard drug, 1 mg/mL, 24 h, 36 °C
Experimental: as §5

Bacillus subtilis = assay: Disc diffusion, B. subtilis; format: cell-based; conditions: inhibition zone vs standard drug, 1 mg/mL, 24 h, 36 °C
Experimental: as §5

Candida albicans = assay: Disc diffusion, C. albicans; format: cell-based; conditions: inhibition zone vs standard drug, 1 mg/mL, 24 h, 36 °C
Experimental: as §5

Aspergillus flavus = assay: Disc diffusion, A. flavus; format: cell-based; conditions: inhibition zone vs standard drug, 1 mg/mL, 24 h, 36 °C
Experimental: as §5

[5] = Homo sapiens, HepG2, 48 h, read-out: Anti-cancer activity HepG-2 (IC50), MTT, 48 h

| SMILES | IC50 [1, 5] | antitumor impact on HepG-2 ([1]; MTT, 48 h) | antitumor impact on Caco-2 [2] | IC50 (Mammary gland (MCF-7)) | antitumor impact on MCF-7 (Mammary gland (MCF-7)) | DPPH scavenging (DPPH radical scavenging) | ABTS scavenging (ABTS radical scavenging) | biocidal effect against bacterial and fungal strains [3] | melting point | IC50 [2] | cytotoxic effect on WI-38 normal cells [4] | also measured |
| --- | --- | --- | --- | --- | --- | --- | --- | --- | --- | --- | --- | --- |
| CCOP(=O)(OCC)C(Nc1ncc(Cl)cc1Cl)c1ccc(N(C)C)cc1 (stereo not drawn) [Compound 3e, Diethyl (((3,5-dichloropyridin-2-yl)amino)(4-(dimethylamino)phenyl)methyl)phosphonate] | 3.1 µM | moderate to weak impact | moderate to weak impact | 3.4 µM | moderate to weak impact | weak capacity | weak capacity | weak | 70 to 72 °C | – | – | – |
| CCOP(=O)(OCC)C(Nc1ncc(Cl)cc1Cl)c1ccc(O)cc1 (stereo not drawn) [Compound 3b, Diethyl (((3,5-dichloropyridin-2-yl)amino)(4-hydroxyphenyl)methyl)phosphonate] | 66.8 ± 3.5 µM | – | – | – | – | weak capacity | weak capacity | weak | 56 to 58 °C | – | – | – |
| CCOP(=O)(OCC)C(Nc1ncc(Cl)cc1Cl)c1ccc(O)c(OC)c1 (stereo not drawn) [Compound 3a, Diethyl(((3,5-dichloropyridin-2-yl)amino)(4-hydroxy-3-methoxyphenyl)methyl)phosphonate] | 17.9 ± 1.3 µM | – | low effect | – | – | moderate impact | moderate impact | moderate | 66 to 68 °C | 3.3 µM | without any toxic effects | – |
| CCOP(=O)(OCC)C(Nc1ncc(Cl)cc1Cl)c1c(O)ccc2ccccc12 (stereo not drawn) [Compound 3d, Diethyl (((3,5-dichloropyridin-2-yl)amino)(2-hydroxynaphthalen-1-yl)methyl)phosphonate] | – | – | – | – | – | – | – | – | 145 to 147 °C | – | no cytotoxic effects; also recorded: without any toxic effects | IC50 (DPPH radical scavenging): 20.04 ± 0.14 µM; IC50 (ABTS radical scavenging): 29.14 ± 0.18 µM; activity index E. coli (Escherichia coli): 42.3%; activity index P. aeruginosa (Pseudomonas aeruginosa): 60.9%; activity index S. aureus (Staphylococcus aureus): 62.5%; activity index B. subtilis (Bacillus subtilis): 52.2%; activity index C. albicans (Candida albicans): 81.5%; activity index A. flavus (Aspergillus flavus): 72% |
| COc1cccc2c1C(=O)c1c(O)c3c(c(O)c1C2=O)C[C@@](O)(C(=O)CO)C[C@@H]3O[C@H]1C[C@H](N)[C@H](O)[C@H](C)O1 [DOX, reference compound] | – | – | – | – | – | – | – | – | – | – | highly toxic effects | IC50 ([1]; MTT, 48 h, read-out: Anti-cancer activity HepG-2 (IC50)): 6.72 ± 0.5 µM; IC50 [4]: 6.72 ± 0.5 µM |
| O=C1O[C@H]([C@@H](O)CO)C(O)=C1O [L-Ascorbic acid, reference compound] | – | – | – | – | – | – | – | – | – | – | – | IC50 (DPPH radical scavenging): 16.81 ± 0.1 µM; IC50 (ABTS radical scavenging): 29.47 ± 0.17 µM |
| CCOP(=O)(OCC)C(Nc1ncc(Cl)cc1Cl)c1ccsc1 (stereo not drawn) [Compound 3f, Diethyl (((3,5-dichloropyridin-2-yl)amino)(thiophen-3-yl)methyl)phosphonate] | – | – | low effect | – | – | moderate impact | moderate impact | moderate | 88 to 90 °C | 1.7 µM | without any toxic effects | – |
| CCOP(=O)(OCC)C(Nc1ncc(Cl)cc1Cl)c1ccccc1O (stereo not drawn) [Compound 3g, Diethyl (((3,5-dichloropyridin-2-yl)amino)(2-hydroxyphenyl)methyl)phosphonate] | 2.4 µM | moderate to weak impact | moderate to weak impact | 2.6 µM | moderate to weak impact | weak capacity | weak capacity | weak | 100 to 102 °C | 3 µM | – | – |
| CCOP(=O)(OCC)C(Nc1ncc(Cl)cc1Cl)c1ccccc1OC (stereo not drawn) [Compound 3c, Diethyl (((3,5-dichloropyridin-2-yl)amino)(2-methoxyphenyl)methyl)phosphonate] | – | moderate to weak impact | moderate to weak impact | 2.1 µM | moderate to weak impact | weak capacity | weak capacity | moderate | 73 to 75 °C | 2.3 µM | – | – |
